From publication PMC9030254, “Target Hopping from Protein Kinases to PXR: Identification of Small-Molecule Protein Kinase Inhibitors as Selective Modulators of Pregnane X Receptor from TüKIC Library” (Cells, 2022)

Assays:
Experiment in all cases: Kinase profiling
Type in all cases: biochemical
ACVR1 = biological target: T1, ACVR1 (Homo sapiens, UniProt Q04771)
T1 construct: purchased ProQinase (Freiburg, Germany)
T1 sequence (Q04771 21-509): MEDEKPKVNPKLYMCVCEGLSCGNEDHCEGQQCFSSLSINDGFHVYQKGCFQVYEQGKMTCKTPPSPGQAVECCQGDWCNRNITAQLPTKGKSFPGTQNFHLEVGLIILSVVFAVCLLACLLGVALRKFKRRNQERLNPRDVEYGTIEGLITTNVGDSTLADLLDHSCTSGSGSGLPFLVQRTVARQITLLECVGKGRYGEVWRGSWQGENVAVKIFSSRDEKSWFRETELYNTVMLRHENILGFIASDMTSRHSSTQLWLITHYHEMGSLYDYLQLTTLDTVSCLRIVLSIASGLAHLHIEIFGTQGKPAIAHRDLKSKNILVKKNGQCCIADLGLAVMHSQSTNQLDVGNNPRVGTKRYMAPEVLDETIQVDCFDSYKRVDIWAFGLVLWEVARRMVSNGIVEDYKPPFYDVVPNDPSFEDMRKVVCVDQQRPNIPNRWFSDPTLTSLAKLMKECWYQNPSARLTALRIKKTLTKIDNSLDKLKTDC
Protocol: (§1) The analysis was performed by ProQinase (Freiburg, Germany).

CDC7/DBF4 = biological target: T2, CDC7/DBF4 (Homo sapiens, UniProt O00311)
T2 construct: purchased ProQinase (Freiburg, Germany)
Protocol: as §1

CDK1/CycB1 = biological target: T3, CDK1/CycB1 (Homo sapiens, UniProt P06493)
T3 construct: purchased ProQinase (Freiburg, Germany)
Protocol: as §1

EPHA2 = biological target: T4, EPHA2 (Homo sapiens, UniProt P29317)
T4 construct: purchased ProQinase (Freiburg, Germany)
Protocol: as §1

JAK1 = biological target: T5, JAK1 (Homo sapiens, UniProt P23458)
T5 construct: purchased ProQinase (Freiburg, Germany)
Protocol: as §1

MKK6 SDTD = biological target: T6, MKK6 SDTD (Homo sapiens, UniProt P52564, S207D/T211D)
T6 construct: purchased ProQinase (Freiburg, Germany)
T6 sequence (P52564 1-334 S207D/T211D): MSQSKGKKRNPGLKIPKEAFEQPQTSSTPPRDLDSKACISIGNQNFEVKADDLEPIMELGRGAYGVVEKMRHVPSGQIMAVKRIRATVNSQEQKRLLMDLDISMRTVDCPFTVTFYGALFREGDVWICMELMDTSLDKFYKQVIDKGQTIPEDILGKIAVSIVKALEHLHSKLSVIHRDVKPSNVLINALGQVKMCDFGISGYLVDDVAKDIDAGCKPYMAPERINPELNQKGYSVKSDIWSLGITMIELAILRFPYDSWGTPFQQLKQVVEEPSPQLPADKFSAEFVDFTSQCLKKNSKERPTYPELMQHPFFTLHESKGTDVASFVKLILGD
Protocol: as §1

SAK = biological target: T7, SAK (Homo sapiens, UniProt O00444)
T7 construct: purchased ProQinase (Freiburg, Germany)
T7 sequence (O00444 1-970): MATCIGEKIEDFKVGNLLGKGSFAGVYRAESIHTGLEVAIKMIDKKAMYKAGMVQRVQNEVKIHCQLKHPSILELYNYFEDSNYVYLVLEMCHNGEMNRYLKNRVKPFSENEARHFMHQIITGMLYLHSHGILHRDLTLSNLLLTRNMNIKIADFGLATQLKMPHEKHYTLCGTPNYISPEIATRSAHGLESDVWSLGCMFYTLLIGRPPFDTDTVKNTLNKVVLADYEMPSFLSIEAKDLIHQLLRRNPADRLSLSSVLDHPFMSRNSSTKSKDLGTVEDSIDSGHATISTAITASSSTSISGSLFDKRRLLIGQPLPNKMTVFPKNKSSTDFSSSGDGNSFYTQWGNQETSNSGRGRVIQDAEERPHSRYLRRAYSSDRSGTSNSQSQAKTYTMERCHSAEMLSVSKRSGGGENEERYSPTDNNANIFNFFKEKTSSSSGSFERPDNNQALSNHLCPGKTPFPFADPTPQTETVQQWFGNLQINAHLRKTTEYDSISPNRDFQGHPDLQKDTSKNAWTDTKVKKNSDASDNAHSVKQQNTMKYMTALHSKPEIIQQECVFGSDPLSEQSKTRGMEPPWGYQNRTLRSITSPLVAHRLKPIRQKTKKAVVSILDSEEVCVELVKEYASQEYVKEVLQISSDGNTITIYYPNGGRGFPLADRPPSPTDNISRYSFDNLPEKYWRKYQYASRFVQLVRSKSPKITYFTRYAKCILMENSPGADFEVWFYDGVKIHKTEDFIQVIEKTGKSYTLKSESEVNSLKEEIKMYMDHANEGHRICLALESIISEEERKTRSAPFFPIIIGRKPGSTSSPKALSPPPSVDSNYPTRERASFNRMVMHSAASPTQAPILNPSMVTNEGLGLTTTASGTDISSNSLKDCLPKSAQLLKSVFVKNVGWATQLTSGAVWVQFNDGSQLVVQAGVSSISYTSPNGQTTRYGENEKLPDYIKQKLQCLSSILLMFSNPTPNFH
Protocol: as §1

SLK = biological target: T8, SLK (Homo sapiens, UniProt Q9H2G2)
T8 construct: purchased ProQinase (Freiburg, Germany)
Protocol: as §1

TRKC = biological target: T9, TRKC (Homo sapiens, UniProt Q16288)
T9 construct: purchased ProQinase (Freiburg, Germany)
Protocol: as §1

T9 sequence (Q16288 32-839): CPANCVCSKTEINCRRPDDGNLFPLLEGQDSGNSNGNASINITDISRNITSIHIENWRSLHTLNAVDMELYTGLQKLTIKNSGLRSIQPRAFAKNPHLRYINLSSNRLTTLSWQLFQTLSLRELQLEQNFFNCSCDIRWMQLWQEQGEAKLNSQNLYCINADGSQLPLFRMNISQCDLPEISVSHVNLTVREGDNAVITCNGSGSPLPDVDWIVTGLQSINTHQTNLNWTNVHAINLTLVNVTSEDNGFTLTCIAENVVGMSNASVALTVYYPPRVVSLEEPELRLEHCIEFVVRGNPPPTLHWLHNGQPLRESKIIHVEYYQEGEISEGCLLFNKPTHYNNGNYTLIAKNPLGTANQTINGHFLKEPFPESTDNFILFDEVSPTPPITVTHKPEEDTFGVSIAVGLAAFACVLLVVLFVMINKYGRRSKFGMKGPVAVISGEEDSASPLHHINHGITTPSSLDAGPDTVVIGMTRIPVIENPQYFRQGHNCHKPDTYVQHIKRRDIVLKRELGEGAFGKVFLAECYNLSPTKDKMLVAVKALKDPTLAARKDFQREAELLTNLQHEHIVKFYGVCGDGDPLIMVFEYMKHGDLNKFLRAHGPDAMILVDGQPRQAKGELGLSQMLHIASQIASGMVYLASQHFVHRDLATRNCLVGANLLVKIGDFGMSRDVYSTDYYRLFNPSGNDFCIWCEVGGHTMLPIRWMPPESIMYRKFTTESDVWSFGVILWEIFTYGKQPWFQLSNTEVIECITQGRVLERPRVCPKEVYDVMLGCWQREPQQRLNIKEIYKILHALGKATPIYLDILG
T4 sequence (P29317 24-976): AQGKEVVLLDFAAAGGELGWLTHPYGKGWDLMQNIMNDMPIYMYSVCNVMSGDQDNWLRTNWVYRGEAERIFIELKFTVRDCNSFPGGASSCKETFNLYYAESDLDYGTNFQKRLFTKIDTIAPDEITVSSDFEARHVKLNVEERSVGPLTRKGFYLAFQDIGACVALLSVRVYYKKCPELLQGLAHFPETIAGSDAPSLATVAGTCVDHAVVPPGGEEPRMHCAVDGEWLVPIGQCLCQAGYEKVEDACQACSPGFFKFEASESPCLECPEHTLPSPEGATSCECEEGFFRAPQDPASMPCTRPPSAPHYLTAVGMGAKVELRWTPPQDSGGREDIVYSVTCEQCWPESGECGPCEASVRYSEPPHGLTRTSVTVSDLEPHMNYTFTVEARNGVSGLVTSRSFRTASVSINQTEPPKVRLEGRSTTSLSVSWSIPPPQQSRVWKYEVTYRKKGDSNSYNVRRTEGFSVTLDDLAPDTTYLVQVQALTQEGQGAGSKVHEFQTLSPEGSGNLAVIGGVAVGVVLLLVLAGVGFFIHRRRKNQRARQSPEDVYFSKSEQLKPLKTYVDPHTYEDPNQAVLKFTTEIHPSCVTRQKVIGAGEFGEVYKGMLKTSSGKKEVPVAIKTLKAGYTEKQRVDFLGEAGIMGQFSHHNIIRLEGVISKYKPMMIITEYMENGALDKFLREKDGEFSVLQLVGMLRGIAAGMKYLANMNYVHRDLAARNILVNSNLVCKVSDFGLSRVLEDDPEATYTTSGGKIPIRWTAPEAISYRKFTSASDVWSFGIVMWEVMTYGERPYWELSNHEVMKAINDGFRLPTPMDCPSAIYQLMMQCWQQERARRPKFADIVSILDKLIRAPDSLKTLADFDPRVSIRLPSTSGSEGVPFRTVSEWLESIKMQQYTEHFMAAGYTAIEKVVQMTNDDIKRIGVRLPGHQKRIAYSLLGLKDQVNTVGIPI
T2 sequence (O00311 whole entry): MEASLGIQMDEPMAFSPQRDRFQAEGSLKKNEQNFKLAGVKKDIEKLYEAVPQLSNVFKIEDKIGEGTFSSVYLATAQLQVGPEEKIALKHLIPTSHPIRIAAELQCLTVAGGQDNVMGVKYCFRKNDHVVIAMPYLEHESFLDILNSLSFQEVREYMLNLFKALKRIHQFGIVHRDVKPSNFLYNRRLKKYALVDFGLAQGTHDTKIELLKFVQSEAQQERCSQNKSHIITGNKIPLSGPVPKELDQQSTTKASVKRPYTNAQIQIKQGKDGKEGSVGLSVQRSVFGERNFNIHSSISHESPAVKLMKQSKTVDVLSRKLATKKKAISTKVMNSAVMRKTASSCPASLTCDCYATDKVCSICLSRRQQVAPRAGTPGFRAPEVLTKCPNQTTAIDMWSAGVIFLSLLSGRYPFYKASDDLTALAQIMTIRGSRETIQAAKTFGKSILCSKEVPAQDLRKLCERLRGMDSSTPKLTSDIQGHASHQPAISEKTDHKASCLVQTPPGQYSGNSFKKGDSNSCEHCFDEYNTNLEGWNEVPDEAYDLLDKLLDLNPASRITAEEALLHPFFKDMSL
T2 sequence (Q9UBU7 whole entry partner): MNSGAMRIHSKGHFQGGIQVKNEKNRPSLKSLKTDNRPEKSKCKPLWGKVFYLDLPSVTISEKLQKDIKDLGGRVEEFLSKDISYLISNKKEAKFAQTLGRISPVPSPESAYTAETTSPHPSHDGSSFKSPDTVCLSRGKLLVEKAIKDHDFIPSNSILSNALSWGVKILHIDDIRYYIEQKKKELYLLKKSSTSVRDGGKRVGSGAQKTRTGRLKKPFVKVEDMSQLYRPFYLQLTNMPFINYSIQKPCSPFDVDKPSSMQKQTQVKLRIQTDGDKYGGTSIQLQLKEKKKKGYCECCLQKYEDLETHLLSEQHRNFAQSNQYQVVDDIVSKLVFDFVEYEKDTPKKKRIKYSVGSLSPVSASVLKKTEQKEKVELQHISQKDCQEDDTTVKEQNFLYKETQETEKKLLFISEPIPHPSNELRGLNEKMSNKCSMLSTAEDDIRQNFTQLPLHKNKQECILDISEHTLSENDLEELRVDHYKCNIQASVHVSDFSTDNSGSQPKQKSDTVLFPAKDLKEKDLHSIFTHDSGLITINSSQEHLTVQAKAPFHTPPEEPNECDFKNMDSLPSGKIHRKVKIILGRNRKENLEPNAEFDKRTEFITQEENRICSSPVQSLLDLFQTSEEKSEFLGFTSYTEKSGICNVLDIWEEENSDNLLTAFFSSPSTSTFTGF
T5 sequence (P23458 whole entry): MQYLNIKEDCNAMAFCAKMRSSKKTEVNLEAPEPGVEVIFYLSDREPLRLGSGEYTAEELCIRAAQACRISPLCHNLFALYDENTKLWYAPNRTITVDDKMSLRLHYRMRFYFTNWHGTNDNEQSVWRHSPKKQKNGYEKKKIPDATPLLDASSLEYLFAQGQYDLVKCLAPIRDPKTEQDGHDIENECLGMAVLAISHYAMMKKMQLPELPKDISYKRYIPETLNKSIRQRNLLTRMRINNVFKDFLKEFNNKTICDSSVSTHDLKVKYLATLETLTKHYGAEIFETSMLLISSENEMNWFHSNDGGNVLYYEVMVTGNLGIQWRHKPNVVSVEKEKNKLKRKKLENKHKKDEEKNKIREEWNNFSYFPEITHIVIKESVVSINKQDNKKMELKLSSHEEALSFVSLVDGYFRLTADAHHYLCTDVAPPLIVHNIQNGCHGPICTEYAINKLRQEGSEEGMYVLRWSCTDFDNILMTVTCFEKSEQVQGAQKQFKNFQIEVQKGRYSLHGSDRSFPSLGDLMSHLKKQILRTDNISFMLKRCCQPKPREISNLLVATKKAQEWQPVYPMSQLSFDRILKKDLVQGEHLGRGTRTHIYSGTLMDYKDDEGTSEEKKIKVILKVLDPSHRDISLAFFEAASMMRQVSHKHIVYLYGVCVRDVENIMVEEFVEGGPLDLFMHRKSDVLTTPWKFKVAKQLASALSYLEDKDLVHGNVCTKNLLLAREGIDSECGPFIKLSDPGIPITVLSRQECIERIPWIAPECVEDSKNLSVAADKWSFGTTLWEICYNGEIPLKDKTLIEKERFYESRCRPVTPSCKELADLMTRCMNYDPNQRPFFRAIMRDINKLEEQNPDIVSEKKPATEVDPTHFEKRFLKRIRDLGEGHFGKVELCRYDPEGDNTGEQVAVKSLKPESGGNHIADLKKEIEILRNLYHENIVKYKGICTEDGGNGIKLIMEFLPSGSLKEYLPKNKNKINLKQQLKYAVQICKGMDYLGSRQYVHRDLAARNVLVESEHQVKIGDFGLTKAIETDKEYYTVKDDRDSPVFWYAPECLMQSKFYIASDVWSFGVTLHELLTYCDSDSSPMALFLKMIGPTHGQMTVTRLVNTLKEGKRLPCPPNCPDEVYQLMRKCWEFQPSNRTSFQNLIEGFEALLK
T3 sequence (P06493 whole entry): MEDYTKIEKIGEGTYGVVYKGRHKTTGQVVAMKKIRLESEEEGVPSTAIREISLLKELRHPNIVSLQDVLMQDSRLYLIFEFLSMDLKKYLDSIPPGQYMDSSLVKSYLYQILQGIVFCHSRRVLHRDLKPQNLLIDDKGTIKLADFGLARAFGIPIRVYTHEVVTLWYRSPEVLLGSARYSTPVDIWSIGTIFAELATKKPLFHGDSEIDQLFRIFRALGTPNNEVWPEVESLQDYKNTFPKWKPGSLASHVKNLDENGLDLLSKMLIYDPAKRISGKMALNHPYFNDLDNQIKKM
T3 sequence (P14635 whole entry partner): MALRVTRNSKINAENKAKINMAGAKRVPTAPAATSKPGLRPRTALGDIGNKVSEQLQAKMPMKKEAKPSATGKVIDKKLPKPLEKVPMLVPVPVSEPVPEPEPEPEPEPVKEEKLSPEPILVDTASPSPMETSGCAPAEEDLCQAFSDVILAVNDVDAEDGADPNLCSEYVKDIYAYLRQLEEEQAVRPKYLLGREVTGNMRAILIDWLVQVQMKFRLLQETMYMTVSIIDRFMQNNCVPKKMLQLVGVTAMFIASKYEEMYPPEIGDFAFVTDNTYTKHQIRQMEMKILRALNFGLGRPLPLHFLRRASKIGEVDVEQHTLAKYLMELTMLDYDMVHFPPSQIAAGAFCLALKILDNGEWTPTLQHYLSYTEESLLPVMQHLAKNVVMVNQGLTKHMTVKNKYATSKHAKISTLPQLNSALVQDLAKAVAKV

SMILES | Residual activity (ACVR1; 1.0E-05 M) | Residual activity (ACVR1; 1.0E-06 M) | Residual activity (CDC7/DBF4; 1.0E-05 M) | Residual activity (CDC7/DBF4; 1.0E-06 M) | Residual activity (CDK1/CycB1; 1.0E-05 M) | Residual activity (CDK1/CycB1; 1.0E-06 M) | Residual activity (EPHA2; 1.0E-05 M) | Residual activity (EPHA2; 1.0E-06 M) | Residual activity (JAK1; 1.0E-05 M) | Residual activity (JAK1; 1.0E-06 M) | Residual activity (MKK6 SDTD; 1.0E-05 M) | Residual activity (MKK6 SDTD; 1.0E-06 M) | Residual activity (SAK; 1.0E-05 M) | Residual activity (SAK; 1.0E-06 M) | Residual activity (SLK; 1.0E-05 M) | Residual activity (SLK; 1.0E-06 M) | Residual activity (TRKC; 1.0E-05 M) | Residual activity (TRKC; 1.0E-06 M)
O=C(Cc1ccccc1)Nc1ccc(F)c(Nc2ccc3c(c2)CCCCC3=O)c1 [Compound 100] | 93 % of control | 97 % of control | 93 % of control | 98 % of control | 100 % of control | 107 % of control | 94 % of control | 116 % of control | 85 % of control | 88 % of control | 109 % of control | 89 % of control | 81 % of control | 92 % of control | 93 % of control | 98 % of control | 89 % of control | 109 % of control
O=C(Nc1ccc(F)c(Nc2ccc3c(c2)CCCCC3=O)c1)c1cccc(F)c1 [Compound 109] | 97 % of control | 88 % of control | 91 % of control | 96 % of control | 114 % of control | 106 % of control | 107 % of control | 105 % of control | 88 % of control | 77 % of control | 137 % of control | 85 % of control | 71 % of control | 89 % of control | 91 % of control | 94 % of control | 97 % of control | 112 % of control
